Measurements: patent US10457655B2, “Compounds and compositions for inhibition of FASN” (FORMA Therapeutics, Inc., priority 2013, dated 2019)

Target: FASN enzyme (Homo sapiens, UniProt P49327)
Experiment: Enzymatic Assay for FASN Inhibitors
Assay type: biochemical
Summary of the method: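 40 nM FASN preincubated with compound 60 min at 25° C in HEPES pH 7.3 buffer with 0.04% Triton X-100. Then 20 μM acetyl-CoA, 60 μM malonyl-CoA and 100 μM NADPH added for 90 min, quenched with CPM thiol probe; fluorescence 360/530 nm, IC50 by four-parameter fit.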

Chain of FASN enzyme (P49327 whole entry): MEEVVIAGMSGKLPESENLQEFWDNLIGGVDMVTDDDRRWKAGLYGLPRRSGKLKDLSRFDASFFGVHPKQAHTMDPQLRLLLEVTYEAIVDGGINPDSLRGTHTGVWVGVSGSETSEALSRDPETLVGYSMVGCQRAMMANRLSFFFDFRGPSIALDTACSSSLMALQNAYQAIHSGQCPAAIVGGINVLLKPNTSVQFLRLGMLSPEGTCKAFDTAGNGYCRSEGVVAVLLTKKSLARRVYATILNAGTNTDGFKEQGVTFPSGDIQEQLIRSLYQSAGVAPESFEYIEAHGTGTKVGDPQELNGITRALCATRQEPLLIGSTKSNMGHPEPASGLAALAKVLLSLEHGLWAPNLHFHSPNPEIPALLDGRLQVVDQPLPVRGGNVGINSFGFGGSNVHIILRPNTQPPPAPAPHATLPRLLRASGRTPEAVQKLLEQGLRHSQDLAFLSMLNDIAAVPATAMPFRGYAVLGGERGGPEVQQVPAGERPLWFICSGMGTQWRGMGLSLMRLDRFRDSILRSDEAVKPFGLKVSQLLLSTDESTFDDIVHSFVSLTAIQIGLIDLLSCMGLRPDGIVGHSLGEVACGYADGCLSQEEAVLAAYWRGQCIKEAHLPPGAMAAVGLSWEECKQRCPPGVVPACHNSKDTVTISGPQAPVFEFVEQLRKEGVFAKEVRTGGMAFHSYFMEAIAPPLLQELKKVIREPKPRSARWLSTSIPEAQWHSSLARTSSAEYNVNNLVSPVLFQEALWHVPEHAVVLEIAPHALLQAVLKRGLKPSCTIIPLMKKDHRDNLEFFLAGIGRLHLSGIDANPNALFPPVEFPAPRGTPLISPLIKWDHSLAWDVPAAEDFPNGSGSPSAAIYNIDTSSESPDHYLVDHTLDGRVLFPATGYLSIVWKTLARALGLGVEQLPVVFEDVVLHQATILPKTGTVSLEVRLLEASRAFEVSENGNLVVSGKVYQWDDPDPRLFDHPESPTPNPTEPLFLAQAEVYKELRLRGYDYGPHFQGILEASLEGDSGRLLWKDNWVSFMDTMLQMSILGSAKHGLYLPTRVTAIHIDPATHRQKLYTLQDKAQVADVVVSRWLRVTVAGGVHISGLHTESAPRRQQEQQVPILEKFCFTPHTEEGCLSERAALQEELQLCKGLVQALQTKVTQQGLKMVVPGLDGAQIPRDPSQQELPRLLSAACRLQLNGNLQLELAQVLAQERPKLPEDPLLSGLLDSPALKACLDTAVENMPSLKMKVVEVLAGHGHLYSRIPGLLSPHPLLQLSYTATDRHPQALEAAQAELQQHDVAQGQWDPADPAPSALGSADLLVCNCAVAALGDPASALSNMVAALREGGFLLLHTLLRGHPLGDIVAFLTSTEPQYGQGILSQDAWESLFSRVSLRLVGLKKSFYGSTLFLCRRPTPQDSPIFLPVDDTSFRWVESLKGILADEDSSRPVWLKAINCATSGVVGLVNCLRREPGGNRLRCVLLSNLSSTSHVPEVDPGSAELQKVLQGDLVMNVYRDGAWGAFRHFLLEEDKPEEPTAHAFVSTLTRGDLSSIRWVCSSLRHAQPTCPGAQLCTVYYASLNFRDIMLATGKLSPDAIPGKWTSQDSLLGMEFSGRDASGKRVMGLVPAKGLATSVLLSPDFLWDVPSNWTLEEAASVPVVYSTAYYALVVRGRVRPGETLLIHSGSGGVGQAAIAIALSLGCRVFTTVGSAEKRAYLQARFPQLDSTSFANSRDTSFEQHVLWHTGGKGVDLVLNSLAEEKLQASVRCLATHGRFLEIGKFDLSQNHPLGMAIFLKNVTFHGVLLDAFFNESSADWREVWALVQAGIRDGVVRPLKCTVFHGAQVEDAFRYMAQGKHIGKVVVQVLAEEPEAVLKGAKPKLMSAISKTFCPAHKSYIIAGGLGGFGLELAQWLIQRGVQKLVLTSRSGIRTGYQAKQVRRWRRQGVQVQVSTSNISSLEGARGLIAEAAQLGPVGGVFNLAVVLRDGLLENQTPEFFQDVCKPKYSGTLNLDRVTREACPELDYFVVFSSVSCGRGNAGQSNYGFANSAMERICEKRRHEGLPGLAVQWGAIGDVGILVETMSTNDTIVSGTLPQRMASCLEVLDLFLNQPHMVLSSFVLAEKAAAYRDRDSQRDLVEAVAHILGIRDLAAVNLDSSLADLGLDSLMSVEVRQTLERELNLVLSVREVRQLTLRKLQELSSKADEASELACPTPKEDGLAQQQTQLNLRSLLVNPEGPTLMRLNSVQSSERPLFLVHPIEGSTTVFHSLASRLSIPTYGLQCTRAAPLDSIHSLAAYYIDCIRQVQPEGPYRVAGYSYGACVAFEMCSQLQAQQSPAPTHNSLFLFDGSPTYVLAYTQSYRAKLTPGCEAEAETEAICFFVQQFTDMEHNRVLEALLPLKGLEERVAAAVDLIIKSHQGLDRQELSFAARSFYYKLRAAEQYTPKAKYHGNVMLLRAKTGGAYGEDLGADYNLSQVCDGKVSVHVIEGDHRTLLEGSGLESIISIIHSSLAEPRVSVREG

IC50 [nM] | SMILES
< 500 | O=C(c1ccc(-c2nc3ccc(Cl)cc3o2)c(Cl)c1)N1CCN(C(=O)C2(O)CC2)CC1 [1-{4-[3-chloro-4-(6-chloro-1,3-benzoxazol-2-yl)benzoyl]piperazine-1-carbonyl}cyclopropan-1-ol]
< 500 | O=C(c1ccc(-c2nc3ccc(F)cc3o2)c(Cl)c1)N1CCN(C(=O)C2(O)CC2)CC1 [1-{4-[3-chloro-4-(6-fluoro-1,3-benzoxazol-2-yl)benzoyl]piperazine-1-carbonyl}cyclopropan-1-ol]
< 500 | Cn1cnc2cc(-c3ccc(C(=O)N4CCN(C(=O)C5(O)CC5)CC4)cc3F)ccc21 [1-{4-[3-fluoro-4-(1-methyl-1H-1,3-benzodiazol-5-yl)benzoyl]piperazine-1-carbonyl}cyclopropan-1-ol]
< 500 | Cn1ncc2ccc(-c3ccc(C(=O)N4CCN(C(=O)C5(O)CC5)CC4)cc3F)cc21 [1-{4-[3-fluoro-4-(1-methyl-1H-indazol-6-yl)benzoyl]piperazine-1-carbonyl}cyclopropan-1-ol]
< 500 | Cn1cc2ccc(-c3ccc(C(=O)N4CCN(C(=O)C5(O)CC5)CC4)cc3F)cc2n1 [1-{4-[3-fluoro-4-(2-methyl-2H-indazol-6-yl)benzoyl]piperazine-1-carbonyl}cyclopropan-1-ol]
< 500 | O=C(c1ccc(-c2nc3ccc(F)cc3o2)c(F)c1)N1CCN(C(=O)C2(O)CC2)CC1 [1-{4-[3-fluoro-4-(6-fluoro-1,3-benzoxazol-2-yl)benzoyl]piperazine-1-carbonyl}cyclopropan-1-ol]
< 500 | O=C(c1ccc(N2CCc3ccccc3C2)cc1)N1CCN(C(=O)C2(O)CC2)CC1 [1-{4-[4-(1,2,3,4-tetrahydroisoquinolin-2-yl)benzoyl]piperazine-1-carbonyl}cyclopropan-1-ol]
< 500 | Cc1nn(C)c2ccc(-c3ccc(C(=O)N4CCN(C(=O)C5(N)CCC5)CC4)c(F)c3)cc12 [1-{4-[4-(1,3-dimethyl-1H-indazol-5-yl)-2-fluorobenzoyl]piperazine-1-carbonyl}cyclobutan-1-amine]
< 500 | Cc1nn(C)c2ccc(-c3ccc(C(=O)N4CCN(C(=O)C5(N)CC5)CC4)c(F)c3)cc12 [1-{4-[4-(1,3-dimethyl-1H-indazol-5-yl)-2-fluorobenzoyl]piperazine-1-carbonyl}cyclopropan-1-amine]
< 500 | Cc1nn(C)c2ccc(-c3ccc(C(=O)N4CCN(C(=O)C5(O)CC5)CC4)c(F)c3)cc12 [1-{4-[4-(1,3-dimethyl-1H-indazol-5-yl)-2-fluorobenzoyl]piperazine-1-carbonyl}cyclopropan-1-ol]
< 500 | Cc1nn(C)c2ccc(-c3ccc(C(=O)N4CCN(C(=O)C5(O)CC5)CC4)cc3F)cc12 [1-{4-[4-(1,3-dimethyl-1H-indazol-5-yl)-3-fluorobenzoyl]piperazine-1-carbonyl}cyclopropan-1-ol]
< 500 | Cc1nn(C)c2ccc(-c3ccc(C(=O)N4CCN(C(=O)C5(N)CCC5)CC4)cc3)cc12 [1-{4-[4-(1,3-dimethyl-1H-indazol-5-yl)benzoyl]piperazine-1-carbonyl}cyclobutan-1-amine]
< 500 | O=C(c1ccc(-c2ccc3c(cnn3C3CC3)c2)cc1)N1CCN(C(=O)C2(O)CC2)CC1 [1-{4-[4-(1-cyclopropyl-1H-indazol-5-yl)benzoyl]piperazine-1-carbonyl}cyclopropan-1-ol]
< 500 | CS(=O)(=O)n1ccc2ccc(-c3ccc(C(=O)N4CCN(C(=O)C5(O)CC5)CC4)cc3)cc21 [1-{4-[4-(1-methanesulfonyl-1H-indol-6-yl)benzoyl]piperazine-1-carbonyl}cyclopropan-1-ol]
< 500 | Cn1cnc2cc(-c3ccc(C(=O)N4CCN(C(=O)C5(O)CC5)CC45CC5)cc3)ccc21 [1-{4-[4-(1-methyl-1H-1,3-benzodiazol-5-yl)benzoyl]-4,7-diazaspiro[2.5]octane-7-carbonyl}cyclopropan-1-ol]
< 500 | Cn1cnc2cc(-c3ccc(C(=O)N4CCN(C(=O)C5(O)CCC5)CC4)cc3)ccc21 [1-{4-[4-(1-methyl-1H-1,3-benzodiazol-5-yl)benzoyl]piperazine-1-carbonyl}cyclobutan-1-ol]
< 500 | Cn1cnc2cc(-c3ccc(C(=O)N4CCN(C(=O)C5(N)CC5)CC4)cc3)ccc21 [1-{4-[4-(1-methyl-1H-1,3-benzodiazol-5-yl)benzoyl]piperazine-1-carbonyl}cyclopropan-1-amine]
< 500 | Cn1ncc2ccc(-c3ccc(C(=O)N4CCN(C(=O)C5(N)CCC5)CC4)cc3)cc21 [1-{4-[4-(1-methyl-1H-indazol-6-yl)benzoyl]piperazine-1-carbonyl}cyclobutan-1-amine]
< 500 | O=C(c1ccc(-n2cnc3ccccc32)cc1)N1CCN(C(=O)C2(O)CC2)CC1 [1-{4-[4-(1H-1,3-benzodiazol-1-yl)benzoyl]piperazine-1-carbonyl}cyclopropan-1-ol]
< 500 | O=C(c1ccc(-c2cccc3[nH]cnc23)cc1Cl)N1CCN(C(=O)C2(O)CC2)CC1 [1-{4-[4-(1H-1,3-benzodiazol-4-yl)-2-chlorobenzoyl]piperazine-1-carbonyl}cyclopropan-1-ol]
< 500 | O=C(c1ccc(-n2ncc3ccccc32)cc1)N1CCN(C(=O)C2(O)CC2)CC1 [1-{4-[4-(1H-indazol-1-yl)benzoyl]piperazine-1-carbonyl}cyclopropan-1-ol]
< 500 | O=C(c1ccc(-n2ccc3ccccc32)cc1)N1CCN(C(=O)C2(O)CC2)CC1 [1-{4-[4-(1H-indol-1-yl)benzoyl]piperazine-1-carbonyl}cyclopropan-1-ol]
< 500 | O=C(c1ccc(N2CCCc3ccccc3C2)cc1)N1CCN(C(=O)C2(O)CC2)CC1 [1-{4-[4-(2,3,4,5-tetrahydro-1H-2-benzazepin-2-yl)benzoyl]piperazine-1-carbonyl}cyclopropan-1-ol]
< 500 | O=C(c1ccc(N2CCc3ccccc3CC2)cc1)N1CCN(C(=O)C2(O)CC2)CC1 [1-{4-[4-(2,3,4,5-tetrahydro-1H-3-benzazepin-3-yl)benzoyl]piperazine-1-carbonyl}cyclopropan-1-ol]
< 500 | O=C(c1ccc(N2CCc3ccccc32)cc1)N1CCN(C(=O)C2(O)CC2)CC1 [1-{4-[4-(2,3-dihydro-1H-indol-1-yl)benzoyl]piperazine-1-carbonyl}cyclopropan-1-ol]
< 500 | O=C(c1ccc(N2Cc3ccccc3C2)cc1)N1CCN(C(=O)C2(O)CC2)CC1 [1-{4-[4-(2,3-dihydro-1H-isoindol-2-yl)benzoyl]piperazine-1-carbonyl}cyclopropan-1-ol]
< 500 | O=C(c1ccc(-c2ccc3nn(C4CC4)cc3c2)cc1)N1CCN(C(=O)C2(O)CC2)CC1 [1-{4-[4-(2-cyclopropyl-2H-indazol-5-yl)benzoyl]piperazine-1-carbonyl}cyclopropan-1-ol]
< 500 | Cc1nc2ccccc2n1-c1ccc(C(=O)N2CCN(C(=O)C3(O)CC3)CC2)cc1 [1-{4-[4-(2-methyl-1H-1,3-benzodiazol-1-yl)benzoyl]piperazine-1-carbonyl}cyclopropan-1-ol]
< 500 | Cc1nc2cc(-c3ccc(C(=O)N4CCN(C(=O)C5(O)CC5)CC4)cc3)ccc2[nH]1 [1-{4-[4-(2-methyl-1H-1,3-benzodiazol-5-yl)benzoyl]piperazine-1-carbonyl}cyclopropan-1-ol]
< 500 | Cc1[nH]c2ccccc2c1-c1ccc(C(=O)N2CCN(C(=O)C3(O)CC3)CC2)cc1 [1-{4-[4-(2-methyl-1H-indol-3-yl)benzoyl]piperazine-1-carbonyl}cyclopropan-1-ol]
